The test system of one assay is ECa-109 cell line. The assay can be described thus: Antiproliferative activity against human ECA109 cells after 48 hrs by MTT assay. The assay is classed as functional, cell-based. The conditions noted are these: ECa-109, 48 h. Background: Formazan colour is commonly taken as a measure of viable cells.
In assay [1] the test system is MGC-803. The assay can be described thus: Antiproliferative activity against human MGC803 cells after 48 hrs by MTT assay. It is filed as functional, cell-based. To be noted: MGC-803, 48 h.
Another assay concerns HGC-27. Put plainly: Antiproliferative activity against human HGC27 cells after 48 hrs by MTT assay. To be noted: HGC-27, 48 h. The assay is classed as functional, cell-based.
For assay [2], the system named is MGC-803. Put plainly: Induction of reactive oxygen species formation in human MGC803 cells at 3 ug/ml after 3 hrs by DCFH-DA staining-based flow cytometry (reference value: 7.1%). It is filed as functional. (Flow cytometry measures light scatter and fluorescence of single cells or particles in a stream.)
Assay [3] has as its system MGC-803. The assay can be described thus: Disruption of mitochondrial membrane potential in human MGC803 cells at 1.5 to 3 ug/ml after 24 hrs by JC1 staining-based fluorescence microscopic method. The assay is classed as functional, cell-based.
For assay [4], the system named is MGC-803. Put plainly: Induction of apoptosis in human MGC803 cells assessed as upregulation of cleaved caspase-9 levels after 48 hrs by Western blot method. The assay is classed as functional, cell-based.
In assay [5] the test system is MGC-803. The assay can be described thus: Induction of apoptosis in human MGC803 cells assessed as necrotic cells at 1.5 ug/ml by annexin V-FITC/propidium iodide staining-based flow cytometric method (reference value: 1%). The assay is classed as functional.
Assay [6] concerns MGC-803. Put plainly: Induction of apoptosis in human MGC803 cells assessed as late apoptotic cells at 3 ug/ml by annexin V-FITC/propidium iodide staining-based flow cytometric method (reference value: 0.1%). The assay is classed as functional.
Assay [7] relates to MGC-803. Put plainly: Induction of apoptosis in human MGC803 cells assessed as viable cells at 3 ug/ml by annexin V-FITC/propidium iodide staining-based flow cytometric method (reference value: 97.6%). The assay is classed as functional. To be noted: read-out: Activity.
For assay [8], the system named is MGC-803. Put plainly: Induction of apoptosis in human MGC803 cells assessed as necrotic cells at 1.5 ug/ml in presence of N-acetyl cysteine by annexin V-FITC/propidium iodide staining-based flow cytometric method (reference value: 1%). It is filed as functional.
Assay [9] relates to MGC-803. Put plainly: Induction of apoptosis in human MGC803 cells assessed as viable cells at 1.5 ug/ml in presence of N-acetyl cysteine by annexin V-FITC/propidium iodide staining-based flow cytometric method (reference value: 97.6%). The assay is classed as functional. The conditions noted are these: read-out: Activity.
Assay [10] relates to MGC-803. Put plainly: Induction of apoptosis in human MGC803 cells assessed as late apoptotic cells at 3 ug/ml in presence of N-acetyl cysteine by annexin V-FITC/propidium iodide staining-based flow cytometric method (reference value: 0.1%). The assay is classed as functional.
The test system of assay [11] is MGC-803. The assay can be described thus: Induction of apoptosis in human MGC803 cells assessed as necrotic cells at 3 ug/ml in presence of N-acetyl cysteine by annexin V-FITC/propidium iodide staining-based flow cytometric method (reference value: 1%). It is filed as functional.
In assay [12] the test system is MGC-803. The assay can be described thus: Cell cycle arrest in human MGC803 cells assessed as accumulation at S phase at 1.5 ug/ml after 48 hrs by propidium iodide staining-based flow cytometric method (reference value: 32.5 +/- 2.25%). The assay is classed as functional.
The test system of assay [13] is MGC-803. Put plainly: Cell cycle arrest in human MGC803 cells assessed as accumulation at S phase at 1.5 ug/ml after 48 hrs in presence of N-acetyl cysteine by propidium iodide staining-based flow cytometric method (reference value: 32.5 +/- 2.25%). It is filed as functional.
Assay [14] concerns MGC-803. The assay can be described thus: Cell cycle arrest in human MGC803 cells assessed as accumulation at S phase at 3 ug/ml after 48 hrs in presence of N-acetyl cysteine by propidium iodide staining-based flow cytometric method (reference value: 32.5 +/- 2.25%). The assay is classed as functional.
Assay [15] deals with MGC-803. The assay can be described thus: Induction of apoptosis in human MGC803 cells assessed as upregulation of p53 levels at 1.5 to 6 ug/ml after 48 hrs by Western blot method. The assay is classed as functional, cell-based.

For one molecule, IC50, Activity and viability results are on record in ChEMBL document CHEMBL4229547, “Design, synthesis and biological mechanisms research on 1,2,3-triazole derivatives of Jiyuan Oridonin A” (Bioorg Med Chem, 2018).

What is called IC50 is the concentration at which inhibition is half-maximal.

Active and inactive are the calls of the source. No cut-off for these calls is given here.

As to `C=C1C(=O)[C@]23[C@H](O)[C@H]1C[C@H](O)[C@H]2[C@]12CCCC(C)(C)[C@H]1C[C@H]3O[C@@H]2OCCc1cn(Cc2ccc(Cl)cc2)nn1`, the figures for the IC50 with ECa-109 cell line, in the assay with MGC-803 [1] and in the assay on HGC-27 were 2700 nM, 2530 nM and 2970 nM, respectively. In addition, the Activity in the assay on MGC-803 [2] was 13.6%; with MGC-803 [4], “Dose-dependent effect”; in the assay with MGC-803 [5], 0.5%; with MGC-803 [6] it was 1.1%; in the assay on MGC-803 [8], 0.6%; with MGC-803 [10], 0%. In addition, the Activity is given as 0.6% in the assay with MGC-803 [11], 29.2% with MGC-803 [12], 29.1% in the assay on MGC-803 [13] and 33.2% in the assay with MGC-803 [14]. The outcome in the assay on MGC-803 [3] and in the assay with MGC-803 [15] was Active. Further, in the assay on MGC-803 [7], the viability at 3 µg/mL came out at 37.4%. Further, the viability at 1.5 µg/mL with MGC-803 [9] was determined as 95%.
